# According to EP3613735A1, “NOVEL SIRT 1 ACTIVATOR AND MEDICINAL USE THEREOF” (Pusan National University Industry - University Cooperation …, priority 2017, dated 2018):
# Columns and labels:
# db/db mice [1] = assay: Dietary intake and weight in obese animal model; type: in vivo, mouse; conditions: oral 5 mg/kg daily for 4 weeks, compared to db/db mice group
# Protocol: The metabolic disease control ability of Compound 32u was analyzed using db/db mice lacking an appetite-regulating hormone leptin receptor as an obese animal model. Compound 32u was orally administered to db/db mice (9 weeks old) at a concentration of 5 mg/kg daily for 4 weeks. The metabolic disease control ability of Compound 70c was analyzed using db/db mice lacking an appetite-regulating hormone leptin receptor as an obese animal model. Compound 70c was orally administered to db/db mice (9 weeks old) at a concentration of 5 mg/kg daily for 4 weeks.
# db/db mice [2] = assay: Serum insulin by ELISA in obese animal model; type: in vivo; conditions: oral 5 mg/kg daily, compared with db/db mouse group
# Protocol: The metabolic disease control ability of Compound 32u was analyzed using db/db mice lacking an appetite-regulating hormone leptin receptor as an obese animal model. Compound 32u was orally administered to db/db mice (9 weeks old) at a concentration of 5 mg/kg daily for 4 weeks. Next, the blood insulin concentration was measured using an enzyme-linked immunosorbent assay (ELISA). Mouse insulin ELISA (TMB) kit ([…], Japan) was used, and serum separated from animal blood was added to a 96 well plate coated with insulin primary antibody and after reacting, the secondary antibody and the substrate were added, reacted and the changed color was measured by an absorbance meter. The metabolic disease control ability of Compound 70c was analyzed using db/db mice lacking an appetite-regulating hormone leptin receptor as an obese animal model. Compound 70c was orally administered to db/db mice (9 weeks old) at a concentration of 5 mg/kg daily for 4 weeks. Next, the blood insulin concentration was measured using an enzyme-linked immunosorbent assay (ELISA). Mouse insulin ELISA (TMB) kit ([…], Japan) was used, and serum separated from animal blood was added to a 96 well plate coated with insulin primary antibody and after reacting, the secondary antibody and the substrate were added, reacted and the changed color was measured by an absorbance meter.
# skin fibroblasts = assay: β-galactosidase staining of UVB-induced cell aging; type: cell-based; conditions: UVB of 12 mJ/cm^2; pretreated at 1 µM for 24 hours
# Protocol: β-galactosidase is used to induce cellular aging of fibroblasts, which are the main cells of the epidermal layer of skin, by using UVB, the most important environmental factor in skin aging, as the most common marker for cell aging and β-galactosidase staining was performed to analyze the cell aging protection of Compound 32u. […]
# [3] = tested on: yeast (Saccharomyces cerevisiae); assay: Yeast lifespan extension; conditions: yeast group treated, compared with the control group
Compound,dietary intake (db/db mice [1]),weight (db/db mice [1]),serum insulin concentration (db/db mice [2]),β-galactosidase staining (skin fibroblasts),lifespan [3]
"Cl.O=C(Nc1ccccc1-c1cc2ccc(CN3CCNCC3)cc2o1)c1ccc2ccccc2c1 [Compound 32u, N-(2-(6-(Piperazin-1-ylmethyl)benzofuran-2-yl)phenyl)-2-naphthamide hydrochloride]",no difference,no difference,reduced,reduced,significantly extended
"O=C(Nc1ccccc1-c1nc2cc(CN3CCN(C4CCCCC4)CC3)ccc2o1)c1ccc2ccccc2c1 [Compound 70c, N-(2-(5-((4-Cyclohexylpiperazin-1-yl)methyl)benzo[d]oxazol-2-yl)phenyl)-2-naphthamide]",no difference,no difference,reduced,reduced,–
